Reference: patent JP2021024822A, “安定化されたトリメブチンマレイン酸塩含有固形製剤” (Kyoto Pharmaceutical Industries Ltd, priority 2019, dated 2021)

Test: Related substance A content of the trimebutine maleate drug substance used
Type: physicochemical
Settings: drug substance used in this study

CCC(COC(=O)c1cc(OC)c(OC)c(OC)c1)(c1ccccc1)N(C)C (stereo not shown) [トリメブチンマレイン酸塩]
content of related substance A in the trimebutine maleate drug substance: 0.06%
